Data: US8993762B2, “Total synthesis of thaxtomin A analogues and their intermediates” (Marrone Bio Innovations, Inc, priority 2013, dated 2015)

Legend:
plant cells = conditions: Lawrence et al., 1990; cited from earlier work
mustard plants = test: Comparison of herbicidal activity, track-sprayer application to mustard plants; format: in vivo; conditions: fifteen day mustard plants; sprayed at 0.25 and 1.0 mg/mL; counted on the 7th and 14th days; four replicates
Protocol: Synthesized thaxtomin A and thaxtomin A from fermentation were separately dissolved in ethanol first (final ethanol concentration in the spraying solution was 2%), then added into 0.2% Glycosperse O-20 water solution. Sonication completely dissolved the thaxtomin A. The concentration of thaxtomin A was 0.25 and 1.0 mg/mL. Water with 2% ethanol and 0.2% Glycosperse O-20 was used as a blank control. Fifteen day mustard plants were used in the experiments. Four replicates for each concentration of thaxtomin A were carried out. Spraying was performed using a Track Sprayer. The herbicidal activity was graded as percent control. Herbicidal activity was counted on the 7th and 14th days, respectively.

Compound | effect on plant cells (plant cells) | herbicidal activity graded as percent control, synthesized vs natural thaxtomin A (mustard plants)
CN1C(=O)[C@](O)(Cc2cccc(O)c2)N(C)C(=O)[C@@H]1Cc1c[nH]c2cccc([N+](=O)[O-])c12 [Synthesized thaxtomin A, Thaxtomin A] | hypertrophy of plant cells at nanomolar amounts | no significant difference
CN1C(=O)[C@](O)(Cc2cccc(O)c2)N(C)C(=O)[C@@H]1Cc1c[nH]c2cccc([N+](=O)[O-])c12 [thaxtomin A from fermentation, thaxtomin A] | – | no significant difference
